Test results as given in patent publication US7166299B2, “Preparation of aqueous clear solution dosage forms with bile acids” (priority 1998, dated 2007).
Several values for one entry are separate records, joined by “and”; a condition that tells them apart may be missing. Equal entries are not always repeated. Where two headings read alike, the source gives them in different places.

Columns and labels:
[1] = Hematic levels of UDCA and glyco UDCA after oral administration of 200 mg UDCA aqueous solution to three healthy men (Example VI); type: in vivo, human
Description: The aqueous solution dosage forms, according to this invention, containing 200 mg of ursodeoxycholic acid (UDCA), were prepared according to the method described in the above-described Example III and were administered to three healthy men having normal body weight after fasting. The hematic levels of UDCA and glyco UDCA were evaluated by means of well known chemical methods. After applying buffered serum to sep-pak column, methanol eluate was derivatized with phenacyl bromide at 80° C. for 45 minutes. These phenacyl bromide derivatives were dissolved in acetonitrile in preparation for HPLC. The experimental results of the absorption measured at certain times after dosage administration include the total absorption expressed as the area under the serum concentration-time curve (AUC: μg/mL×hours), the maximum hematic concentration (Cmax; μg/mL) that has been obtained, and the time (Tmax; hour) in which said maximum concentration has been obtained.
The experimental pharmacokinetic tests of the aqueous solution dosage forms according to this invention carried out on men show substantial improvement in AUC, Cmax and Tmax in comparison with the best results from any dosage forms known presently.
Table 4A and Table 4B show plasma concentration of UDCA and GUDCA measured in 3 men over time following on oral administration of the UDCA and GUDCA containing formulations according to Example VI and comparison of results against results of others employing different pharmaceutical formulations of UDCA.

[2] = UDCA levels in human after oral administration of liquid solution or syrup containing 600 mg UDCA per day (five subjects); type: in vivo; design: unit not given here
From the text: FIG. 3: Diagram of the mean(n=5) for group I for pharmacokinetic parameters of UDCA in human after an oral administration of liquid formulation of UDCA prepared according to Example IX without bismuth. FIG. 4: Diagram of the mean(n=5) for group II for pharmacokinetic parameters of UDCA in human after an oral administration of liquid formulation of UDCA prepared according to Example IX. […] Cmax is shown. Five human subjects were provided with dosage forms prepared according to this Example. The results are shown in Tables 5A and 5B and rendered graphically in FIGS. 3 and 4.

[3] = cited from earlier work
[4] = human, oral, Nagamatsu et al. (1997), cited from earlier work
[5] = oral, 200 mg UDCA solution of this invention

C[C@H](CCC(=O)O)[C@H]1CC[C@H]2[C@@H]3[C@@H](O)C[C@@H]4C[C@H](O)CC[C@]4(C)[C@H]3CC[C@]12C [UDCA, ursodeoxycholic acid (3α-7β-dihydroxy-5β-cholanic acid)]
concentration at 0.25 h ([1]; male, human, plasma, po, 200 mg, 200 mg UDCA solution of this invention, 0.25 h, three men): 8430 ± 1690 ng/mL
concentration at 1 h ([1]; male, human, plasma, po, 200 mg, 200 mg UDCA solution of this invention, 1 h, three men): 1150 ± 470 ng/mL
concentration at 1.5 h ([1]; male, human, plasma, po, 200 mg, 200 mg UDCA solution of this invention, 1.5 h, three men): 320 ± 110 ng/mL
concentration at 0.5 h ([1]; male, human, plasma, po, 200 mg, oral, 200 mg UDCA solution of this invention, 0.5 h, three men, read-out: Plasma concentration, mean): 6550 ± 1050 ng/mL
concentration at 0.5 h ([1]; male, human, plasma, po, 200 mg, oral, 200 mg UDCA solution of this invention, 0.5 h, read-out: Plasma concentration, individual men #1-#3): 4450 ng/mL
concentration at 2 h ([1]; male, human, plasma, po, 200 mg, oral, 200 mg UDCA solution of this invention, 2 h, three men, read-out: Plasma concentration, mean): 190 ± 30 ng/mL
concentration at 2 h ([1]; male, human, plasma, po, 200 mg, oral, 200 mg UDCA solution of this invention, 2 h, read-out: Plasma concentration, individual men #1-#3): 235 ng/mL
concentration at 3 h ([1]; male, human, plasma, po, 200 mg, oral, 200 mg UDCA solution of this invention, 3 h, three men, read-out: Plasma concentration, mean): 170 ± 40 ng/mL
concentration at 3 h ([1]; male, human, plasma, po, 200 mg, oral, 200 mg UDCA solution of this invention, 3 h, read-out: Plasma concentration, individual men #1-#3): 124 ng/mL
AUC ([1]; male, human, plasma, po, 200 mg, oral, 200 mg UDCA solution of this invention, three men, read-out: AUC, mean): 5460 ± 660 ng·h/mL
AUC ([1]; male, human, plasma, po, 200 mg, oral, 200 mg UDCA solution of this invention, read-out: AUC, individual men #1-#3): 4320 ng·h/mL
Tmax ([1]; male, human, plasma, po, 200 mg, oral, 200 mg UDCA solution of this invention, read-out: Tmax, individual men #1-#3): 15 min
Cmax ([1]; male, human, serum, po, 200 mg, oral, 200 mg UDCA solution of this invention, three men, read-out: Cmax, mean): 8430 ± 1690 ng/mL
Tmax ([1]; male, human, serum, po, 200 mg, oral, 200 mg UDCA solution of this invention, three men, read-out: Tmax, mean): 15 min
AUC, individual men #1-#3 [1, 5]: 6600 ng·h/mL and 5470 ng·h/mL
Cmax, individual men #1-#3 [1, 5]: 5210 ng/mL and 10920 ng/mL and 9160 ng/mL
Plasma concentration, individual men #1-#3 ([1]; oral, 200 mg UDCA solution of this invention, 0.25 h): 5120.2 ng/mL and 10917.1 ng/mL and 9159 ng/mL
Plasma concentration, individual men #1-#3 ([1]; oral, 200 mg UDCA solution of this invention, 0.5 h): 7743.2 ng/mL and 7439.5 ng/mL
Plasma concentration, individual men #1-#3 ([1]; oral, 200 mg UDCA solution of this invention, 1 h): 1692.1 ng/mL and 1546 ng/mL and 216.3 ng/mL
Plasma concentration, individual men #1-#3 ([1]; oral, 200 mg UDCA solution of this invention, 1.5 h): 525.6 ng/mL and 275.9 ng/mL and 168 ng/mL
Plasma concentration, individual men #1-#3 ([1]; oral, 200 mg UDCA solution of this invention, 2 h): 217.6 ng/mL and 122.7 ng/mL
Plasma concentration, individual men #1-#3 ([1]; oral, 200 mg UDCA solution of this invention, 3 h): 207.4 ng/mL
Cmax compared with enteric coated sodium salt of UDCA preparations ([1]; oral, 200 mg, men): at least two times higher
Cmax compared with regular UDCA tablet preparations ([1]; oral, 200 mg, men): four times higher
Tmax compared with the fastest Tmax previously known ([1]; oral, 200 mg, men): at least three times faster
UDCA level, Average ([2]; Table 5A: human, oral liquid solution containing 600 mg UDCA per day, 0 min): 0.618
UDCA level, Average ([2]; Table 5A: human, oral liquid solution containing 600 mg UDCA per day, 5 min): 4.578
UDCA level, Average ([2]; Table 5A: human, oral liquid solution containing 600 mg UDCA per day, 15 min): 20.394
UDCA level, Average ([2]; Table 5A: human, oral liquid solution containing 600 mg UDCA per day, 60 min): 10.202
UDCA level, Average ([2]; Table 5A: human, oral liquid solution containing 600 mg UDCA per day, 120 min): 2.168
UDCA level, Average ([2]; Table 5A: human, oral liquid solution containing 600 mg UDCA per day, 240 min): 0.772
UDCA level, Average ([2]; Table 5B: human, oral syrup containing 600 mg UDCA per day, 0 min): 0.398
UDCA level, Average ([2]; Table 5B: human, oral syrup containing 600 mg UDCA per day, 5 min): 1.976
UDCA level, Average ([2]; Table 5B: human, oral syrup containing 600 mg UDCA per day, 15 min): 7.144
UDCA level, Average ([2]; Table 5B: human, oral syrup containing 600 mg UDCA per day, 60 min): 15.000
UDCA level, Average ([2]; Table 5B: human, oral syrup containing 600 mg UDCA per day, 120 min): 4.820
UDCA level, Average ([2]; Table 5B: human, oral syrup containing 600 mg UDCA per day, 240 min): 1.258
solubility in the gastric juices and in aqueous hydrochloric acid solution [3]: especially insoluble
solubility in the gastric pH range [3]: no longer soluble
solubility in water [3]: practically insoluble
Cmax (M ± S.E.) ([4]; 200 mg): 1900 ± 250 ng/mL
Tmax (M ± S.E.) ([4]; 200 mg): 90 ± 24 min
Cmax (M ± S.E.) ([4]; 400 mg): 7090 ± 1430 ng/mL
Tmax (M ± S.E.) ([4]; 400 mg): 48 ± 12 min
